# Results from BigSolDB 2.1.
smiles,measurement,setting,value
C[C@@H]1OC(=O)[C@H](C)OC1=O,solubility (mole fraction),"in acetone, 278.95 K",0.217
same,solubility (mole fraction),"in acetone, 286.95 K",0.247
same,solubility (mole fraction),"in acetone, 290.65 K",0.265
same,solubility (mole fraction),"in acetone, 294.65 K",0.283
same,solubility (mole fraction),"in acetone, 299.35 K",0.307
same,solubility (mole fraction),"in acetone, 304.95 K",0.335
same,solubility (mole fraction),"in acetone, 309.15 K",0.36
same,solubility (mole fraction),"in acetone, 314.35 K",0.394
same,solubility (mole fraction),"in acetone, 319.05 K",0.423
same,solubility (mole fraction),"in acetone, 323.35 K",0.455
same,solubility (mole fraction),"in acetone, 328.25 K",0.49
same,solubility (mole fraction),"in ethanol, 283.95 K",0.00281
same,solubility (mole fraction),"in ethanol, 288.65 K",0.00423
same,solubility (mole fraction),"in ethanol, 295.35 K",0.00878
same,solubility (mole fraction),"in ethanol, 299.95 K",0.0135
same,solubility (mole fraction),"in ethanol, 303.45 K",0.031
same,solubility (mole fraction),"in ethanol, 310.15 K",0.044
same,solubility (mole fraction),"in ethanol, 314.65 K",0.0569
same,solubility (mole fraction),"in ethanol, 319.95 K",0.081
same,solubility (mole fraction),"in ethanol, 325.15 K",0.115
same,solubility (mole fraction),"in ethanol, 329.25 K",0.161
same,solubility (mole fraction),"in ethanol, 333.25 K",0.258
same,solubility (mole fraction),"in ethanol, 336.45 K",0.337
same,solubility (mole fraction),"in ethyl acetate, 277.05 K",0.115
same,solubility (mole fraction),"in ethyl acetate, 282.35 K",0.131
same,solubility (mole fraction),"in ethyl acetate, 287.65 K",0.147
same,solubility (mole fraction),"in ethyl acetate, 296.15 K",0.178
same,solubility (mole fraction),"in ethyl acetate, 301.65 K",0.199
same,solubility (mole fraction),"in ethyl acetate, 305.15 K",0.221
same,solubility (mole fraction),"in ethyl acetate, 308.35 K",0.242
same,solubility (mole fraction),"in ethyl acetate, 313.15 K",0.272
same,solubility (mole fraction),"in ethyl acetate, 318.25 K",0.311
same,solubility (mole fraction),"in ethyl acetate, 324.95 K",0.369
same,solubility (mole fraction),"in ethyl acetate, 331.35 K",0.436
same,solubility (mole fraction),"in ethyl acetate, 336.35 K",0.491
same,solubility (mole fraction),"in isopropanol, 279.65 K",0.00822
same,solubility (mole fraction),"in isopropanol, 290.95 K",0.0131
same,solubility (mole fraction),"in isopropanol, 295.65 K",0.017
same,solubility (mole fraction),"in isopropanol, 299.95 K",0.0208
same,solubility (mole fraction),"in isopropanol, 304.15 K",0.0256
same,solubility (mole fraction),"in isopropanol, 309.35 K",0.0338
same,solubility (mole fraction),"in isopropanol, 314.15 K",0.0455
same,solubility (mole fraction),"in isopropanol, 318.65 K",0.0605
same,solubility (mole fraction),"in isopropanol, 323.65 K",0.0854
same,solubility (mole fraction),"in isopropanol, 329.15 K",0.127
same,solubility (mole fraction),"in isopropanol, 333.15 K",0.177
same,solubility (mole fraction),"in methanol, 278.25 K",0.0153
same,solubility (mole fraction),"in methanol, 282.15 K",0.0221
same,solubility (mole fraction),"in methanol, 284.15 K",0.0231
same,solubility (mole fraction),"in methanol, 290.25 K",0.0302
same,solubility (mole fraction),"in methanol, 294.25 K",0.0373
same,solubility (mole fraction),"in methanol, 298.85 K",0.0474
same,solubility (mole fraction),"in methanol, 302.25 K",0.0614
same,solubility (mole fraction),"in methanol, 308.15 K",0.0895
same,solubility (mole fraction),"in methanol, 311.45 K",0.116
same,solubility (mole fraction),"in methanol, 315.75 K",0.126
same,solubility (mole fraction),"in methanol, 322.25 K",0.204
same,solubility (mole fraction),"in methanol, 332.55 K",0.282
same,solubility (mole fraction),"in methanol, 333.15 K",0.337
same,solubility (mole fraction),"in toluene, 278.55 K",0.0128
same,solubility (mole fraction),"in toluene, 283.65 K",0.0211
same,solubility (mole fraction),"in toluene, 286.95 K",0.0231
same,solubility (mole fraction),"in toluene, 291.15 K",0.029
same,solubility (mole fraction),"in toluene, 298.35 K",0.0371
same,solubility (mole fraction),"in toluene, 303.15 K",0.0436
same,solubility (mole fraction),"in toluene, 308.15 K",0.0666
same,solubility (mole fraction),"in toluene, 315.95 K",0.0854
same,solubility (mole fraction),"in toluene, 321.65 K",0.108
same,solubility (mole fraction),"in toluene, 324.25 K",0.135
same,solubility (mole fraction),"in toluene, 326.95 K",0.157
